Experimental data from patent publication US11236084B2, “Substituted azaindoline derivatives as NIK inhibitors” (Janssen Pharmaceutica NV, priority 2017, dated 2022).
Where two headings read alike, the source gives them in different places.

Molecular target: recombinant human NF-kappaB-inducing kinase (NIK/MAP3K14) (Homo sapiens, UniProt Q99558)
Experiment: Biological Assay B: inhibition of auto-phosphorylation of recombinant human NIK/MAP3K14 (AlphaScreen), performed at 2 locations
Assay type: biochemical
Details: averaged values
Description: Inhibition of Auto-Phosphorylation of Recombinant Human NF-kappaB-Inducing Kinase (NIK/MAP3K14) Activity (AlphaScreen®)
NIK/MAP3K14 auto-phosphorylation activity was measured using the AlphaScreen® (αscreen) format (Perkin Elmer). All compounds tested were dissolved in dimethyl sulfoxide (DMSO) and further dilutions were made in assay buffer. Final DMSO concentration was 1% (v/v) in assays. Assay buffer was 50 mM Tris pH 7.5 containing 1 mM EGTA (ethylene glycol tetraacetic acid), 1 mM DTT (dithiothreitol), 0.1 mM Na3VO4, 5 mM MgCl2, 0.01% Tween® 20. Assays were carried out in 384 well Alphaplates (Perkin Elmer). Incubations consisted of compound, 25 microM Adenosine-5′-triphosphate (ATP), and 0.2 nM NIK/MAP3K14. Incubations were initiated by addition of GST-tagged NIK/MAP3K14 enzyme, carried out for 1 h at 25° C. and terminated by addition of stop buffer containing anti-phospho-IKK Ser176/180 antibody. Protein A Acceptor and Glutathione-Donor beads were added before reading using an EnVision® Multilabel Plate Reader (Perkin Elmer). Signal obtained in the wells containing blank samples was subtracted from all other wells and IC50's were determined by fitting a sigmoidal curve to % inhibition of control versus Log10 compound concentration.
Assay B was performed at 2 different locations.
Data for the compounds of the invention in the above assays are provided in Table A (the values in Table are averaged values over all measurements on all batches of a compound; values as IC50 (nM)). (‘n.c.’ means not calculated: ‘Co.’ means compound)

[1] = location 1, AlphaScreen auto-phosphorylation, read-out: Assay B location 1 IC50
[2] = location 2, AlphaScreen auto-phosphorylation, read-out: Assay B location 2 IC50

Chain of recombinant human NF-kappaB-inducing kinase (NIK/MAP3K14) (Q99558 whole entry): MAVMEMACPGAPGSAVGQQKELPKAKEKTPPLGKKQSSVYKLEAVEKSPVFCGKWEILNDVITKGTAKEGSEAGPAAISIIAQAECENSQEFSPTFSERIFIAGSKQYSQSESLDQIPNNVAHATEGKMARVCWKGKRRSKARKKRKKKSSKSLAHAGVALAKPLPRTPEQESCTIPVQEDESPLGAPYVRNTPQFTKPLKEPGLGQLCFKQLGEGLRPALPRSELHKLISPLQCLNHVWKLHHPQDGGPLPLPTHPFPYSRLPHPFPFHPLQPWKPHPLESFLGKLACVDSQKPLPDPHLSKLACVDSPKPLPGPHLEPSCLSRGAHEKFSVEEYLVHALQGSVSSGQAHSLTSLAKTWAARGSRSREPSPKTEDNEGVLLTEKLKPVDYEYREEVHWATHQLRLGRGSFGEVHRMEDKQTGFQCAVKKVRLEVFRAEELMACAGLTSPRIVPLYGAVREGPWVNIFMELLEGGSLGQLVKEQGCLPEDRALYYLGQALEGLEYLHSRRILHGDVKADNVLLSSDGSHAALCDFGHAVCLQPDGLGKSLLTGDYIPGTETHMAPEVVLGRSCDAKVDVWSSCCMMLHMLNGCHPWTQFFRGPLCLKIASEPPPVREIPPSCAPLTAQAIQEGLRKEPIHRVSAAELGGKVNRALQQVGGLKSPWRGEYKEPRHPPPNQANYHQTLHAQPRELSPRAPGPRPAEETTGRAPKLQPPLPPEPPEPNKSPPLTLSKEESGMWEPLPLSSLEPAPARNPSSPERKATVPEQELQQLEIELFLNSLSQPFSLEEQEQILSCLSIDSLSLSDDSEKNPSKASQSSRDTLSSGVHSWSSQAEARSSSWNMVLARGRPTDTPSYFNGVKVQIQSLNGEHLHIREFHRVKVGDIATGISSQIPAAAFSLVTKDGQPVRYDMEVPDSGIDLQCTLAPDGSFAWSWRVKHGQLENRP

Compound | IC50 [1] [nM] | IC50 [2] [nM] | IC50 (location 1, NIK auto-phosphorylation, AlphaScreen, read-out: Assay B location 1 IC50) [nM]
COc1cc(N)c(Cl)cc1Nc1nccc(-c2cnc3c(c2)C(C)(CO)CN3)n1 (centres unmarked) [Compound 11] | 6.2 | 0.7 | 
COc1cc(Nc2nccc(-c3cnc4c(c3)C(C)(CO)CN4)n2)cc(C(F)(F)F)c1 (centres unmarked) [Compound 193] |  | 22.9 | 
COc1cc(N2CCC(C)(O)CC2)c(Cl)cc1Nc1nccc(-c2cnc3c(c2)C(C)(CO)CN3)n1 (centres unmarked) [Compound 333] |  | 2.2 | 
COc1cc(N2CCC(O)C2)c(Cl)cc1Nc1nccc(-c2cnc3c(c2)C(C)(CO)CN3)n1 (centres unmarked) [Compound 325] |  | 3.6 | 
COc1cc(CCN2CCOCC2)ccc1Nc1nccc(-c2cnc3c(c2)C(C)(CO)CN3)n1 (centres unmarked) [Compound 194] |  | 21.9 | 
CC1(CO)CNc2ncc(-c3ccnc(Nc4ccccc4Br)n3)cc21 (centres unmarked) [Compound 176] |  | 12.6 | 
COc1cc(N2CCN(C)CC2)c(F)cc1Nc1nccc(-c2cnc3c(c2)C(C)(CO)CN3)n1 (centres unmarked) [Compound 271] | 10.2 | 2.6 | 
COc1cc(N2CCOCC2)c(Cl)cc1Nc1nccc(-c2cnc3c(c2)C(C)(CO)CN3)n1 (single isomer, unassigned) [Compound 6S] | 4 | 2.4 | 
COc1cc(N2CCC(OC)CC2)c(Cl)cc1Nc1nccc(-c2cnc3c(c2)C(C)(CO)CN3)n1 (centres unmarked) [Compound 327] | 6.3 | 2.3 | 
COc1cc(C(=O)N2CCC(OC)CC2)c(Cl)cc1Nc1nccc(-c2cnc3c(c2)C(C)(C)CN3)n1 [Compound 9] | 5.3 | 1.8 | 
COc1cc(Nc2nccc(-c3cnc4c(c3)C(C)(CO)CN4)n2)ccc1-c1cnn(C)c1 (centres unmarked) [Compound 188] |  | 5.5 | 
COc1cc(-n2cccn2)ccc1Nc1nccc(-c2cnc3c(c2)C(C)(CO)CN3)n1 (centres unmarked) [Compound 191] |  | ~27 | 
COc1cc(N2CCOCC2)c(F)cc1Nc1nccc(-c2cnc3c(c2)C(C)(CO)CN3)n1 (centres unmarked) [Compound 243] |  | 10 | 
COc1cc(N2CCC(OC)CC2)ccc1Nc1nccc(-c2cnc3c(c2)C(C)(CO)CN3)n1 (centres unmarked) [Compound 213] |  | 13.8 | 
Cc1cccc(Nc2nccc(-c3cnc4c(c3)C(C)(CO)CN4)n2)c1C (centres unmarked) [Compound 212] |  | 22.4 | 
COCCN(C)c1cc(OC)c(Nc2nccc(-c3cnc4c(c3)C(C)(CO)CN4)n2)cc1Cl (single isomer, unassigned) [Compound 5R] |  | 31.6 | 
CC1(CO)CNc2ncc(-c3ccnc(Nc4cc(F)c(N5CCOCC5)cc4Cl)n3)cc21 (single isomer, unassigned) [Compound 261] | 8.3 | 7.2 | 
CCN1CCN(C(=O)c2cc(OC)c(Nc3nccc(-c4cnc5c(c4)C(C)(CO)CN5)n3)cc2Cl)CC1 (centres unmarked) [Compound 328] |  | 1.5 | 
COc1cc(N2CC3(CCOCC3)C2)ccc1Nc1nccc(-c2cnc3c(c2)C(C)(CO)CN3)n1 (centres unmarked) [Compound 242] | 35.5 | 13.8 | 
CN(C)CCOc1cc(N2CCOCC2)c(Cl)cc1Nc1nccc(-c2cnc3c(c2)C(C)(CO)CN3)n1 (single isomer, unassigned) [Compound 274] | 2690 | 1450 | 

Compound | IC50 [1] [nM] | IC50 [2] [nM] | IC50 (location 1, NIK auto-phosphorylation, AlphaScreen, read-out: Assay B location 1 IC50) [nM]
Cc1cc(N2CCOCC2)c(C#N)cc1Nc1nccc(-c2cnc3c(c2)C(C)(CO)CN3)n1 (single isomer, unassigned) [Compound 262] | 129 | 129 | 
COCCOc1cc(N2CCOCC2)c(Cl)cc1Nc1nccc(-c2cnc3c(c2)C(C)(CO)CN3)n1 (centres unmarked) [Compound 367] | 87.1 | 21.9 | 
COc1cc(-c2ncc[nH]2)ccc1Nc1nccc(-c2cnc3c(c2)C(C)(CO)CN3)n1 (centres unmarked) [Compound 163] |  | 12 | 
Cc1cc(N2CCOCC2)c(F)cc1Nc1nccc(-c2cnc3c(c2)C(C)(CO)CN3)n1 (single isomer, unassigned) [Compound 255] | 10.2 | 7.2 | 
COc1cc(N2CC3(CCOC3)C2)c(Cl)cc1Nc1nccc(-c2cnc3c(c2)C(C)(CO)CN3)n1 (centres unmarked) [Compound 284] | 7.4 | 1.1 | 
COCC(C)(C)CNc1cc(OC)c(Nc2nccc(-c3cnc4c(c3)C(C)(CO)CN4)n2)cc1F (centres unmarked) [Compound 323] | 22.9 | 7.2 | 
COc1cc(OCC(=O)N(C)C)c(Cl)cc1Nc1nccc(-c2cnc3c(c2)C(C)(CO)CN3)n1 (centres unmarked) [Compound 322] |  | 1.7 | 
COc1cc(C(=O)N2CCCCC2)ccc1Nc1nccc(-c2cnc3c(c2)C(C)(CO)CN3)n1 (single isomer, unassigned) [Compound 157] |  | 63.1 | 
CCOc1ccccc1Nc1nccc(-c2cnc3c(c2)C(C)(CO)CN3)n1 (centres unmarked) [Compound 174] |  | 32.4 | 
COc1cc(C(=O)NC2CCOCC2)ccc1Nc1ncc(F)c(-c2cnc3c(c2)C(C)(CO)CN3)n1 (single isomer, unassigned) [Compound 352] |  |  | 33.9
CN(C)CCOc1cc(N2CCOCC2)c(F)cc1Nc1nccc(-c2cnc3c(c2)C(C)(CO)CN3)n1 (centres unmarked) [Compound 370] | 1620 | 977 | 
COc1cc(N2CCOCC2)c(Cl)cc1Nc1nccc(-c2cnc3c(c2)C(C)(CO)CN3)n1 (single isomer, unassigned) [Compound 6R] | 19.1 | 27.7 | 
CCN1CCN(c2cc(OC)c(Nc3nccc(-c4cnc5c(c4)C(C)(CO)CN5)n3)cc2C)CC1 (centres unmarked) [Compound 318] | 4.9 | 1.5 | 
COCCN1CCN(c2cc(OC)c(Nc3nccc(-c4cnc5c(c4)C(C)(CO)CN5)n3)cc2Cl)CC1 (centres unmarked) [Compound 311] | 3.9 | 0.9 | 
CCOC1CN(c2cc(OC)c(Nc3nccc(-c4cnc5c(c4)C(C)(CO)CN5)n3)cc2Cl)C1 (centres unmarked) [Compound 357] | 12 | 10 | 
COCCN1CCC(c2cc(OC)c(Nc3nccc(-c4cnc5c(c4)C(C)(CO)CN5)n3)cc2Cl)CC1 (centres unmarked) [Compound 319] | 4.2 | 1.2 | 
CCc1ccccc1Nc1nccc(-c2cnc3c(c2)C(C)(CO)CN3)n1 (centres unmarked) [Compound 167] |  | 19.1 | 
COc1cc(N2CCC(N(C)C)C2)c(Cl)cc1Nc1nccc(-c2cnc3c(c2)C(C)(CO)CN3)n1 (centres unmarked) [Compound 278] | 4.7 | 1 | 
COCCOc1cc(N2CCOCC2)c(F)cc1Nc1nccc(-c2cnc3c(c2)C(C)(CO)CN3)n1 (centres unmarked) [Compound 368] | 191 | 112 | 
COc1cc(N2CC3(CCOCC3)C2)c(F)cc1Nc1nccc(-c2cnc3c(c2)C(C)(CO)CN3)n1 (single isomer, unassigned) [Compound 7S] | 7.8 | 1.6 | 

Compound | IC50 [1] [nM] | IC50 [2] [nM] | IC50 (location 1, NIK auto-phosphorylation, AlphaScreen, read-out: Assay B location 1 IC50) [nM]
COc1cc(-n2cncn2)ccc1Nc1nccc(-c2cnc3c(c2)C(C)(CO)CN3)n1 (centres unmarked) [Compound 207] |  | 16.6 | 
COc1ccc(Br)cc1Nc1nccc(-c2cnc3c(c2)C(C)(CO)CN3)n1 (centres unmarked) [Compound 181] |  | 2.2 | 
COc1cc(N2CC3(CCOCC3)C2)c(Cl)cc1Nc1nccc(-c2cnc3c(c2)C(C)(CO)CN3)n1 (centres unmarked) [Compound 3] | 10 | 2.2 | 
COc1cc(OC2CCN(C)CC2)ccc1Nc1nccc(-c2cnc3c(c2)C(C)(CO)CN3)n1 (centres unmarked) [Compound 228] |  | 26.3 | 
COc1cc(N2CC(OC)C2)c(Cl)cc1Nc1nccc(-c2cnc3c(c2)C(C)(CO)CN3)n1 (centres unmarked) [Compound 287] | 3.9 | 1.3 | 
CC1(CO)CNc2ncc(-c3ccnc(Nc4ccccc4OC4CCOCC4)n3)cc21 (centres unmarked) [Compound 247] | 38 | 22.4 | 
COc1cc(N2CCOCC2)c(Cl)cc1Nc1nccc(-c2cnc3c(c2)C(C)(CO)CN3)n1 (centres unmarked) [Compound 6] | 4.7 | 4 | 
COc1cc(N2CC3(CCOCC3)C2)c(F)cc1Nc1nccc(-c2cnc3c(c2)C(C)(CO)CN3)n1 (single isomer, unassigned) [Compound 7R] | 70.8 | 19.1 | 
CC1(C)CNc2ncc(-c3ccnc(Nc4ccc(C(=O)NC5CNC5)cc4)n3)cc21 [Compound 34] |  | 1.6 | 
Cc1ccc(Cl)cc1Nc1nccc(-c2cnc3c(c2)C(C)(CO)CN3)n1 (centres unmarked) [Compound 199] |  | 4.5 | 
COc1cc(Cn2cccn2)ccc1Nc1nccc(-c2cnc3c(c2)C(C)(CO)CN3)n1 (centres unmarked) [Compound 189] |  | 6.9 | 
Cc1cc(N2CCOCC2)c(F)cc1Nc1nccc(-c2cnc3c(c2)C(C)(CO)CN3)n1 (centres unmarked) [Compound 366] | 22.9 | 12.9 | 
COc1ccc(Cl)cc1Nc1nccc(-c2cnc3c(c2)C(C)(CO)CN3)n1 (centres unmarked) [Compound 183] |  | 1.4 | 
COc1cc(N2CC3(CCOCC3)C2)c(C#N)cc1Nc1nccc(-c2cnc3c(c2)C(C)(CO)CN3)n1 (centres unmarked) [Compound 372] | 13.4 | 1.6 | 
COc1cc(C(=O)N2CCC(OC)CC2)c(Cl)cc1Nc1nccc(-c2cnc3c(c2)C(C)(CO)CN3)n1 (centres unmarked) [Compound 296] | 5.3 | 1.2 | 
COc1cc(OCCN2CCN(C)CC2)c(Cl)cc1Nc1nccc(-c2cnc3c(c2)C(C)(CO)CN3)n1 (centres unmarked) [Compound 320] | 2.7 | 1 | 
CCC1(CCO)CNc2ncc(-c3ccnc(Nc4ccc(C(=O)NC5CCOCC5)cc4OC)n3)cc21 (centres unmarked) [Compound 158] |  | 15.1 | 
COc1ccc(Nc2nccc(-c3cnc4c(c3)C(C)(CO)CN4)n2)c(OC)c1 (centres unmarked) [Compound 164] |  | 5.6 | 
